Test results: ChEMBL document CHEMBL4828706, “Mechanistic Insights into the Leishmanicidal and Bactericidal Activities of Batroxicidin, a Cathelicidin-Related Peptide from a South American Viper (Bothrops atrox)” (J Nat Prod, 2021)
pEC50: −log10 of the molar value. Converted amounts (≈) assume the structure as drawn. The source made the active and inactive calls. No cut-off for these calls is given here. Where a SMILES comes first, the peptide text is derived from it.

Assays:
Cell membrane [1] = experiment: Disruption of membrane integrity in Leishmania amazonensis promastigotes assessed as cell morphology deformation at 61.98 uM by Atomic force microscopy analysis; assay type: subcellular
Lipid bilayer [2] = experiment: Binding affinity with Biomimetic membrane dodecylphosphocholine micelles by NMR analysis
Leishmania amazonensis [3] = experiment: Antileishmanial activity in Leishmania amazonensis amastigotes infected in Balb/c mouse peritoneal macrophages assessed as reduction in infection index measured after 24 hrs by Giemsa staining based assay; assay type: functional, organism-based; conditions: Peritoneal macrophage
Lipid bilayer [4] = experiment: Binding affinity with Biomimetic membrane dodecylphosphocholine micelles by circular dichroism analysis
Staphylococcus aureus [5] = experiment: Antibacterial activity against Staphylococcus aureus ATCC 29213 assessed as inhibition of bacterial growth by CLSI protocol based microdilution assay; assay type: functional
Leishmania amazonensis [6] = experiment: Antileishmanial activity against Leishmania amazonensis (MHOM/BR/73/M2269) promastigotes assessed as inhibition of parasite growth measured after 24 hrs by MTT assay; assay type: functional, organism-based; conditions: MHOM/BR/73/M2269, 24 h
Cell membrane [7] = experiment: Disruption of membrane integrity in Leishmania amazonensis promastigotes assessed as cell morphology deformation by measuring wrinkled patterns at 61.98 uM by Atomic force microscopy analysis; assay type: subcellular
Staphylococcus aureus [8] = experiment: Antibacterial activity against methicillin-resistant Staphylococcus aureus assessed as inhibition of bacterial growth by CLSI protocol based microdilution assay; assay type: functional
Lipid bilayer [9] = experiment: Induction of membrane destabilization in bacterial cell membrane mimic POPC:POPG (80:20) large unilamellar vesicle assessed as carboxyfluorescein leakage at MIC for Escherichia coli measured for 60 mins by fluorescence spectroscopy analysis
Pseudomonas aeruginosa [10] = experiment: Antibacterial activity against Pseudomonas aeruginosa ATCC 27853 assessed as inhibition of bacterial growth by CLSI protocol based microdilution assay; assay type: functional
Escherichia coli [11] = experiment: Antibacterial activity against multidrug- resistant Escherichia coli assessed as inhibition of bacterial growth by CLSI protocol based microdilution assay; assay type: functional
[12] = Cytotoxicity against human HaCat cells assessed as cell growth inhibition measured after 48 hrs by MTT assay; assay type: cell-based
[13] = Cytotoxicity against mouse macrophage J774 cells assessed as cell growth inhibition measured after 24 hrs by Prestoblue dye based fluorescence analysis
Escherichia coli [14] = experiment: Antibacterial activity against Escherichia coli ATCC 25922 assessed as inhibition of bacterial growth by CLSI protocol based microdilution assay; assay type: functional
Lipid bilayer [15] = experiment: Induction of membrane destabilization in mammalian cell membrane mimic POPC:Chol (70:30) large unilamellar vesicle assessed as carboxyfluorescein leakage at MIC for Escherichia coli measured for 60 mins by fluorescence spectroscopy analysis
Cell membrane [16] = experiment: Induction of cell membrane permeabilization in Escherichia coli ATCC 25922 assessed as cell morphology distortion by measuring modifications on bacillary structure at 0.12 uM by Atomic force microscopy analysis; assay type: subcellular
Enterococcus faecalis = experiment: Antibacterial activity against Enterococcus faecalis ATCC 29212 assessed as inhibition of bacterial growth by CLSI protocol based microdilution assay; assay type: functional
Pseudomonas aeruginosa [17] = experiment: Antibacterial activity against multidrug-resistant Pseudomonas aeruginosa assessed as inhibition of bacterial growth by CLSI protocol based microdilution assay; assay type: functional
Cell membrane [18] = experiment: Disruption of membrane integrity in Leishmania amazonensis promastigotes assessed as cell morphology deformation by measuring wrinkled patterns at 59.81 uM by Atomic force microscopy analysis; assay type: subcellular
Cell membrane [19] = experiment: Disruption of membrane integrity in Leishmania amazonensis promastigotes assessed as cell morphology deformation at 59.81 uM by Atomic force microscopy analysis; assay type: subcellular
Cell membrane [20] = experiment: Disruption of membrane integrity in Leishmania amazonensis promastigotes at EC50 to 2 x EC50 measured after 24 hrs by SYTOX green staining based fluorescence assay; assay type: subcellular
Cell membrane [21] = experiment: Induction of cell membrane permeabilization in Escherichia coli ATCC 25922 assessed as cell morphology distortion by measuring modifications on bacillary structure at 0.23 uM by Atomic force microscopy analysis; assay type: subcellular
Leishmania amazonensis [22] = experiment: Antileishmanial activity in Leishmania amazonensis amastigotes infected in Balb/c mouse peritoneal macrophages assessed as average parasitic charge per macrophage at 0.70 uM measured after 24 hrs by Giemsa staining based assay; assay type: functional; conditions: dose 0.7 µM
Escherichia coli [23] = experiment: Antibacterial activity against Escherichia coli ATCC 2101123 assessed as inhibition of bacterial growth incubated for 18 hrs by CLSI protocol based microdilution assay; assay type: functional
Cell membrane [24] = experiment: Induction of cell membrane permeabilization in Escherichia coli ATCC 25922 assessed as cell morphology distortion by measuring alterations in cell shape at 0.47 uM by Atomic force microscopy analysis; assay type: subcellular
Cell membrane [25] = experiment: Induction of cell membrane permeabilization in Escherichia coli ATCC 25922 assessed as cell morphology distortion by measuring circular depressions along the bacterial surface at 0.47 uM by Atomic force microscopy analysis; assay type: subcellular
Escherichia coli [26] = experiment: Antibacterial activity against Escherichia coli ATCC 1812446 assessed as inhibition of bacterial growth incubated for 18 hrs by CLSI protocol based microdilution assay; assay type: functional
Leishmania amazonensis [27] = experiment: Antileishmanial activity in Leishmania amazonensis amastigotes infected in Balb/c mouse peritoneal macrophages assessed as average parasitic charge per macrophage at 1 uM measured after 24 hrs by Giemsa staining based assay; assay type: functional
Escherichia coli [28] = experiment: Antibacterial activity against Escherichia coli ATCC 25922 assessed as inhibition of bacterial growth incubated for 18 hrs by CLSI protocol based microdilution assay; assay type: functional
Pseudomonas aeruginosa [29] = experiment: Antibacterial activity against Pseudomonas aeruginosa ATCC 27853 assessed as inhibition of bacterial growth incubated for 18 hrs by CLSI protocol based microdilution assay; assay type: functional

| Structure (SMILES) | Activity (Lipid bilayer [2]) | Activity (Leishmania amazonensis [3]) | Activity (Lipid bilayer [4]) | MIC (Staphylococcus aureus [5]) [µM] | pEC50 (Leishmania amazonensis [6]) | MIC (Staphylococcus aureus [8]) [µM] | Activity (Lipid bilayer [9]) [%] | MIC (Pseudomonas aeruginosa [10]) [µM] | MIC (Escherichia coli [11]) [µM] | CC50 at 48 h [12] [µM] | CC50 at 24 h [13] [µM] | MIC (Escherichia coli [14]) [µM] | Activity (Lipid bilayer [15]) [%] | MIC (Enterococcus faecalis) [µM] | MIC (Pseudomonas aeruginosa [17]) [µM] | MIC (Escherichia coli [23]) [µM] | MIC (Escherichia coli [26]) [µM] | further results |
| --- | --- | --- | --- | --- | --- | --- | --- | --- | --- | --- | --- | --- | --- | --- | --- | --- | --- | --- |
| CC[C@H](C)[C@H](NC(=O)[C@@H](NC(=O)[C@H](CCCNC(=N)N)NC(=O)[C@@H]1CCCN1C(=O)[C@H](CCCCN)NC(=O)[C@H](CCCNC(=N)N)NC(=O)[C@H](Cc1ccccc1)NC(=O)[C@H](Cc1ccccc1)NC(=O)[C@H](Cc1ccccc1)NC(=O)[C@H](CCCCN)NC(=O)[C@@H](NC(=O)[C@H](CCCNC(=N)N)NC(=O)[C@H](CCCCN)NC(=O)[C@H](CCCCN)NC(=O)[C@@H](NC(=O)[C@H](CO)NC(=O)[C@H](CC(N)=O)NC(=O)[C@H](CCCCN)NC(=O)[C@H](CC(C)C)NC(=O)[C@H](CCCCN)NC(=O)[C@H](CCCCN)NC(=O)[C@H](Cc1ccccc1)NC(=O)[C@H](Cc1ccccc1)NC(=O)[C@H](CCCCN)NC(=O)[C@H](CCCCN)NC(=O)[C@H](Cc1ccccc1)NC(=O)[C@H](CCCNC(=N)N)NC(=O)[C@@H](N)CCCCN)C(C)C)C(C)C)C(C)C)C(=O)NCC(=O)N[C@H](C(=O)N[C@H](C(=O)N[C@@H](Cc1ccccc1)C(=O)N1CCC[C@H]1C(N)=O)[C@@H](C)O)C(C)C (H-KRFKKFFKKLKNSVKKRVKFFFRKPRVIGVTFP-NH2) | Active | Dose-Dependent Effect | Active | 3.87 (≈ 16 µg/mL) | 5.05 | 1.94 (≈ 8.01 µg/mL) | 35 | 0.97 (≈ 4.01 µg/mL) | 0.48 (≈ 1.98 µg/mL) | 34.1 | 3.51 | 0.48 (≈ 1.98 µg/mL) | 30 | 7.75 (≈ 32 µg/mL) | 0.94 (≈ 3.88 µg/mL) | – | – | Activity (Cell membrane [1]): Active; Activity (Cell membrane [7]): Active; Activity (Cell membrane [16]): Active |
| CC[C@H](C)[C@H](NC(=O)[C@@H](NC(=O)[C@H](CCCNC(=N)N)NC(=O)[C@@H]1CCCN1C(=O)[C@H](CCCCN)NC(=O)[C@H](CCCNC(=N)N)NC(=O)[C@H](Cc1ccccc1)NC(=O)[C@H](Cc1ccccc1)NC(=O)[C@H](Cc1ccccc1)NC(=O)[C@H](CCCCN)NC(=O)[C@@H](NC(=O)[C@H](CCCNC(=N)N)NC(=O)[C@H](CCCCN)NC(=O)[C@H](CCCCN)NC(=O)[C@@H](NC(=O)[C@H](CO)NC(=O)[C@H](CC(N)=O)NC(=O)[C@H](CCCCN)NC(=O)[C@H](CC(C)C)NC(=O)[C@H](CCCCN)NC(=O)[C@H](CCCCN)NC(=O)[C@H](Cc1ccccc1)NC(=O)[C@H](Cc1ccccc1)NC(=O)[C@H](CCCCN)NC(=O)[C@H](CCCCN)NC(=O)[C@H](Cc1ccccc1)NC(=O)[C@H](CCCNC(=N)N)NC(=O)[C@@H](N)CCCCN)C(C)C)C(C)C)C(C)C)C(=O)NCC(=O)N[C@H](C(=O)N[C@H](C(=O)N[C@@H](Cc1ccccc1)C(=O)N1CCC[C@H]1C(=O)N[C@@H](Cc1ccccc1)C(N)=O)[C@@H](C)O)C(C)C (H-KRFKKFFKKLKNSVKKRVKFFFRKPRVIGVTFPF-NH2) | Active | Dose-Dependent Effect | Active | 3.74 (≈ 16 µg/mL) | 5.17 | 1.87 (≈ 8 µg/mL) | 60 | 1.87 (≈ 8 µg/mL) | 0.94 (≈ 4.02 µg/mL) | 29.4 | 2.14 | 0.93 (≈ 3.98 µg/mL) | 60 | 7.48 (≈ 32 µg/mL) | 4 (≈ 17.1 µg/mL) | – | – | Activity (Cell membrane [18]): Active; Activity (Cell membrane [19]): Active; Activity (Cell membrane [20]): Active; Activity (Cell membrane [21]): Active |
| CC[C@H](C)[C@H](NC(=O)[C@@H](NC(=O)[C@H](CCCNC(=N)N)NC(=O)[C@@H]1CCCN1C(=O)[C@H](CCCCN)NC(=O)[C@H](CCCNC(=N)N)NC(=O)[C@H](Cc1ccccc1)NC(=O)[C@H](Cc1ccccc1)NC(=O)[C@H](CCCCN)NC(=O)[C@H](CCCCN)NC(=O)[C@@H](NC(=O)[C@H](CCCNC(=N)N)NC(=O)[C@H](CCCCN)NC(=O)[C@H](CCCCN)NC(=O)[C@@H](NC(=O)[C@H](CO)NC(=O)[C@H](CC(N)=O)NC(=O)[C@H](CCCCN)NC(=O)[C@H](CC(C)C)NC(=O)[C@H](CCCCN)NC(=O)[C@H](CCCCN)NC(=O)[C@H](Cc1ccccc1)NC(=O)[C@H](Cc1ccccc1)NC(=O)[C@H](CCCCN)NC(=O)[C@H](CCCCN)NC(=O)[C@H](Cc1ccccc1)NC(=O)[C@H](CCCNC(=N)N)NC(=O)[C@@H](N)CCCCN)C(C)C)C(C)C)C(C)C)C(=O)NCC(=O)N[C@H](C(=O)N[C@H](C(=O)N[C@@H](Cc1ccccc1)C(=O)N1CCC[C@H]1C(=O)N[C@@H](Cc1ccccc1)C(N)=O)[C@@H](C)O)C(C)C (H-KRFKKFFKKLKNSVKKRVKKFFRKPRVIGVTFPF-NH2) | Active | Dose-Dependent Effect | Active | 7.51 (≈ 32 µg/mL) | 5.31 | 7.51 (≈ 32 µg/mL) | 50 | 0.94 (≈ 4 µg/mL) | 0.94 (≈ 4 µg/mL) | 21.7 | 1.6 | 0.48 (≈ 2.04 µg/mL) | 35 | 7.51 (≈ 32 µg/mL) | 0.94 (≈ 4 µg/mL) | 8 (≈ 34.1 µg/mL) | 8 (≈ 34.1 µg/mL) | Activity (Leishmania amazonensis [22]): 1.96; Activity (Cell membrane [24]): inactive; Activity (Cell membrane [25]): Active |
| C[C@@H]1[C@H](O)[C@@H](C)/C=C/C=C/C=C/C=C/C=C/C=C/C=C/[C@H](O[C@@H]2O[C@H](C)[C@@H](O)[C@H](N)[C@@H]2O)C[C@@H]2O[C@](O)(C[C@@H](O)C[C@@H](O)[C@H](O)CC[C@@H](O)C[C@@H](O)CC(=O)O[C@H]1C)C[C@H](O)[C@H]2C(=O)O [AMPHOTERICIN B] | – | – | – | – | 7.62 | – | – | – | – | – | – | – | – | – | – | – | – | Ratio (Leishmania amazonensis [27]): 5.07 |
| C[C@H]1C(=O)O[C@@H]2CCN3CC=C(COC(=O)[C@](C)(O)[C@]1(C)O)[C@H]23 [MONOCROTALINE] | – | – | – | – | – | – | – | – | – | – | – | – | – | – | – | 4 (≈ 1.3 µg/mL) | 16 (≈ 5.21 µg/mL) | MIC (Escherichia coli [28]): 0.78 µM (≈ 0.254 µg/mL); MIC (Pseudomonas aeruginosa [29]): 1.56 µM (≈ 0.508 µg/mL) |
